From paper PMC5141568 (ACS Medicinal Chemistry Letters, 2015) come the findings set out here.

“Also recorded” adds a separate entry of the source.

The first assay has as its target T1, Naegleria Tet1 (NgTet1) (Naegleria gruberi, UniProt D2W6T1).
T1 sequence (D2W6T1 1-321): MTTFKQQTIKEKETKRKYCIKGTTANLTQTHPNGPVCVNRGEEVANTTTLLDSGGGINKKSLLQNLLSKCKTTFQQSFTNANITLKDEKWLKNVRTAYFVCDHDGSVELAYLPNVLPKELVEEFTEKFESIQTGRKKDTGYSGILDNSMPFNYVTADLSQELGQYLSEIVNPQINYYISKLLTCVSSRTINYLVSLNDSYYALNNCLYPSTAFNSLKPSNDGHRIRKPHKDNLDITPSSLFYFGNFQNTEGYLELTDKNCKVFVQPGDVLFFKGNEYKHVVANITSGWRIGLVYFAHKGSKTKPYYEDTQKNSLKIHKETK
As to the kind of experiment: FP competitive binding assay. The following applies: 2.5 and 1.25 mM.
In the case of `O=C(O)CC[C@@H](O)C(=O)O` [compound 7, D-2-hydroxyglutaric acid], the “inhibition at the highest concentrations tested” value is “very slight inhibition”.

Still in this assay, the particulars now being: at the concentrations tested (up to 5.0 mM for 8 and 9).
Regarding `Cc1cn([C@H]2C[C@H](O)[C@@H](CO)O2)c(=O)nc1N` [compound 8, 5-methyl-2'-deoxycytidine], the “competitive displacement of 3 from NgTet1” value (shortened to “competitive displacement”) is “Neither 5mC (8) nor 5hmC (9) showed competitive binding; also recorded: unable to competitively displace 3”.
Take `Nc1nc(=O)n([C@H]2C[C@H](O)[C@@H](CO)O2)cc1CO` [compound 9, 2'-deoxy-5-(hydroxymethyl)cytidine]: the “competitive displacement” value is recorded as “Neither 5mC (8) nor 5hmC (9) showed competitive binding; also recorded: unable to competitively displace 3”.
As to `O=C(O)c1ccnc(C(=O)O)c1` [compound 6, pyridine 2,4-dicarboxylic acid], the “competitive displacement” value was “showed the ability to competitively displace 3”.
Turning to `O=C(O)CNC(=O)C(=O)O` [compound 5, N-oxalyl glycine], the “competitive displacement” value is “showed the ability to competitively displace 3”.
As to `O=C(O)CCC(=O)C(=O)O` [compound 4, α-ketoglutarate], the “competitive displacement” value was “showed the ability to competitively displace 3”.
